Tests used:
Assay type in all cases: in vivo
[1] = test system: Lolium rigidum (LOLRI); test: E. Herbicidal post-emergence efficacy, LOLRI; details: application rate 320 g/ha
Protocol: (§1) Seeds of monocotyledonous and dicotyledonous weeds and crop plants were placed in sandy loam in plastic or organic planting pots, covered with soil and cultivated in a greenhouse under controlled growth conditions. 2 to 3 weeks after sowing, the test plants were treated at the one-leaf stage. The compounds of the invention, formulated in the form of wettable powders (WP) or as emulsion concentrates (EC), were then sprayed onto the green parts of the plants as aqueous suspension or emulsion with addition of 0.5% additive at a water application rate of 600 l/ha (converted). After the test plants had been kept in the greenhouse under optimum growth conditions for about 3 weeks, the activity of the preparations was rated visually in comparison to untreated controls.
(§2) For example, • 100% efficacy=plants have died, • 0% action=like untreated control plants.
(§3) Tables E1a to E12b below show the effects of selected compounds of the general formula (I) according to table 1 on various harmful plants at an application rate corresponding to 320 g/ha or less, which were obtained by the experimental procedure mentioned above.

[2] = test system: Glycine max (GLXMA); test: D. Pre-emergence effect on useful plants, GLXMA; details: useful plant
From the text: (§4) Seeds of monocotyledonous and dicotyledonous weed plants and crop plants were placed in plastic or organic planting pots and covered with soil. The compounds of the invention, formulated in the form of wettable powders (WP) or as emulsion concentrates (EC), were then applied to the surface of the covering soil as aqueous suspension or emulsion with addition of 0.5% additive at a water application rate equivalent to 600 l/ha (converted). After the treatment, the pots were placed in a greenhouse and kept under good growth conditions for the test plants. After about 3 weeks, the efficacy of the preparations was scored visually in comparison with untreated controls as percentages. For example, • 100% efficacy=plants have died, • 0% efficacy=like untreated control plants.
(§5) Tables D1a to D5b below show the effects of selected compounds of the general formula (I) according to table 1 on various useful plants at an application rate corresponding to 320 g/ha or less, which were obtained by the experimental procedure mentioned above.

[3] = test system: Digitaria sanguinalis (DIGSA); test: E. Herbicidal post-emergence efficacy, DIGSA
Protocol: as §1, §2, §3

[4] = test system: Oryza sativa (ORYSA); test: D. Pre-emergence effect on useful plants, ORYSA; details: useful plant, application rate 80 g/ha
From the text: as §4, §5

[5] = test system: Oryza sativa (ORYSA); test: F. Post-emergence effect on useful plants, ORYSA; details: useful plant
Protocol: as §1, §2
(§6) Tables F1a to F4 below show the effects of selected compounds of the general formula (I) according to table 1 on various useful plants at an application rate corresponding to 320 g/ha or less, which were obtained by the experimental procedure mentioned above.

[6] = test system: Glycine max (GLXMA); test: F. Post-emergence effect on useful plants, GLXMA; details: useful plant, application rate 80 g/ha
Protocol: as §1, §2, §6

SMILES	Post-emergence efficacy against LOLRI in % [1] [%]	Pre-emergence efficacy against GLXMA in % ([2]; application rate 80 g/ha) [%]	Post-emergence efficacy against DIGSA in % ([3]; application rate 320 g/ha) [%]	Post-emergence efficacy against ORYSA in % ([5]; application rate 80 g/ha) [%]	Post-emergence efficacy against DIGSA in % ([3]; application rate 80 g/ha) [%]	further results
O=S(=O)(CCC1CC1)Oc1c(F)cccc1Oc1ncc(Cl)cn1 [Example I-55]	80	10	90	–	–	–
O=S(=O)(CCl)Oc1ccccc1Oc1ncc(Cl)cn1 [Example I-9]	–	–	80	10	–	Pre-emergence efficacy against ORYSA in % [4]: 0%; Post-emergence efficacy against ORYSA in % ([5]; application rate 320 g/ha): 10%
O=S(=O)(CCC(F)(F)F)Oc1c(Cl)cccc1Oc1ncc(Br)cn1 [Example I-32]	–	0	90	–	–	Pre-emergence efficacy against GLXMA in % ([2]; application rate 320 g/ha): 0%
O=S(=O)(CCCC(F)(F)C(F)(F)F)Oc1c(F)cccc1Oc1ncc(Cl)cn1 [Example I-68]	–	10	90	–	–	–
O=S(=O)(CCC(F)(F)F)Oc1c(F)cccc1Oc1ncc(F)cn1 [Example I-47]	100	–	–	–	–	–
O=S(=O)(CCCC(F)(F)F)Oc1c(Cl)cccc1Oc1ncc(Cl)cn1 [Example I-39]	–	–	100	–	90	–
O=S(=O)(CCCC(F)(F)F)Oc1c(Cl)cccc1Oc1ncc(Br)cn1 [Example I-34]	–	0	90	–	–	–
O=S(=O)(CCC(F)(F)F)Oc1c(F)cccc1Oc1ncc(Cl)cn1 [Example I-48]	90	–	100	–	–	–
O=S(=O)(CC1CC1)Oc1ccccc1Oc1ncc(Cl)cn1 [Example I-23]	–	–	100	0	–	–
O=S(=O)(CCCC(F)(F)F)Oc1c(F)cccc1Oc1ncc(Cl)cn1 [Example I-49]	80	–	100	–	90	–
O=S(=O)(CCCCl)Oc1cccc(F)c1Oc1ncc(Cl)cn1 [Example I-13]	–	10	–	10	–	Pre-emergence efficacy against GLXMA in % ([2]; application rate 320 g/ha): 20%; Post-emergence efficacy against GLXMA in % [6]: 10%; Pre-emergence efficacy against ORYSA in % [4]: 10%
O=S(=O)(CCCCl)Oc1ccccc1Oc1ncc(Cl)cn1 [Example I-2]	–	–	–	0	–	–
N#Cc1cccc(Oc2ncc(Cl)cn2)c1OS(=O)(=O)CCCC(F)(F)F [Example I-81]	80	0	90	–	80	–
O=S(=O)(CCC(F)(F)F)Oc1c(Cl)cccc1Oc1ncc(Cl)cn1 [Example I-38]	–	–	90	–	–	–
O=S(=O)(CCC(F)(F)F)Oc1ccccc1Oc1ncc(Cl)cn1 [Example I-8]	80	–	90	20	80	–
O=S(=O)(CCCC(F)(F)F)Oc1ccccc1Oc1ncc(Cl)cn1 [Example I-10]	90	–	90	–	90	–
